Assay results: ChEMBL document CHEMBL5465560, “Selectivity Literature for EUbOPEN Chemogenomic Library” (2024)

Assays:
[1] = biological target: MAP kinase-interacting serine/threonine-protein kinase 2 (Homo sapiens, UniProt Q9HBH9); experiment: Selectivity interaction (KinomeScan (DiscoverX)) EUB0001049a MKNK2; conditions: at 1 µM
[2] = biological target: RAC-gamma serine/threonine-protein kinase (Homo sapiens, UniProt Q9Y243); experiment: Selectivity interaction (Millipore kinase profiler) EUB0000124b AKT3; conditions: at 10 µM
Chain of RAC-gamma serine/threonine-protein kinase (Q9Y243 whole entry): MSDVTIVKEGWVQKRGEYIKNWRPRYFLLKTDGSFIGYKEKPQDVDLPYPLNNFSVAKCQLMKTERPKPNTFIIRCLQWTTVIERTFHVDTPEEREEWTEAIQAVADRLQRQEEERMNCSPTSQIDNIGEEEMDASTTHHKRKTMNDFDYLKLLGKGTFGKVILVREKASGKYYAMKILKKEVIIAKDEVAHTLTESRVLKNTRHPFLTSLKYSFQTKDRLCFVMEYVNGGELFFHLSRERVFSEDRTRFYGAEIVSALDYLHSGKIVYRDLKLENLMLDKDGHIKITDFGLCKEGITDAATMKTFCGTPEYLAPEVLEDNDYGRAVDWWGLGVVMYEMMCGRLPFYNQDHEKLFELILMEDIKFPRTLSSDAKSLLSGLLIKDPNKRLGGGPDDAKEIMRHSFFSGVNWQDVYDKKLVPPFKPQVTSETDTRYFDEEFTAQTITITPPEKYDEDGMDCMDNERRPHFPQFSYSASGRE

[3] = biological target: T1, Interleukin-1 receptor-associated kinase 4 (Homo sapiens) (UniProt Q9NWZ3); experiment: Selectivity interaction (Kinase panel (literature)) EUB0001199aCl IRAK4; conditions: at 1 µM
T1 sequence (whole entry): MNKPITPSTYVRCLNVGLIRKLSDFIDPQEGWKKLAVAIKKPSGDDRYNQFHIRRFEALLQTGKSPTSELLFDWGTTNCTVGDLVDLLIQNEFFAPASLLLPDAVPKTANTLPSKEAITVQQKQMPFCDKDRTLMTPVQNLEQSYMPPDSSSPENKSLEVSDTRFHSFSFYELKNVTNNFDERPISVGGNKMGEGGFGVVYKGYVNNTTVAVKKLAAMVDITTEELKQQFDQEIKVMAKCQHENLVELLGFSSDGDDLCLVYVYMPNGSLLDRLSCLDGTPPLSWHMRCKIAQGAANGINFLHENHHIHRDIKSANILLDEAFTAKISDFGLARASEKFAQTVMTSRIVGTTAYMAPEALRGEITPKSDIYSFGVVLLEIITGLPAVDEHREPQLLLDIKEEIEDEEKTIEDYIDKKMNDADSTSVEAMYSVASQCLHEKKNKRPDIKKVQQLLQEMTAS

[4] = biological target: Cyclin-dependent kinase 2 (Homo sapiens, UniProt P24941); experiment: Selectivity interaction (Kinase panel (KiNativ target engagement assay in Jurkat cells)) EUB0001635a CDK2; assay type: cell-based; conditions: at 1 µM
[5] = biological target: Protein-tyrosine kinase 6 (Homo sapiens, UniProt Q13882); experiment: Selectivity interaction (Kinase panel (Invitrogen)) EUB0000639a PTK6; conditions: at 200 nM
Chain of Protein-tyrosine kinase 6 (Q13882 whole entry, looked up): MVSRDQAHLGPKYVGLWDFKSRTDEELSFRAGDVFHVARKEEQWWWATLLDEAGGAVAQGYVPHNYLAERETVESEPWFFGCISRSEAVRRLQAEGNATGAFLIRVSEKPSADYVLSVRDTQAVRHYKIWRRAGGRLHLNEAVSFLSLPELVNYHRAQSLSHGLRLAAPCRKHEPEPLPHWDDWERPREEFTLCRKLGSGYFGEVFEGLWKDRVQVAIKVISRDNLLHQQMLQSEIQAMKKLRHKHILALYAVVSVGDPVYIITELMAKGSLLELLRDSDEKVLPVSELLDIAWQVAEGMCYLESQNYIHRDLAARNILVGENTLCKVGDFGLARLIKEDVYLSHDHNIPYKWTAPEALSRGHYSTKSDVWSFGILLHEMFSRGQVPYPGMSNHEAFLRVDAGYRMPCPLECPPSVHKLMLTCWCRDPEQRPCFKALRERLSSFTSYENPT

[6] = biological target: Ribosomal protein S6 kinase alpha-1 (Homo sapiens, UniProt Q15418); experiment: Selectivity interaction (ActivX KiNativ screen (kinase selectivity in THP-1 cell lysates)) EUB0000639a RPS6KA1; assay type: subcellular; conditions: lysate, at 1 µM
Chain of Ribosomal protein S6 kinase alpha-1 (Q15418 whole entry): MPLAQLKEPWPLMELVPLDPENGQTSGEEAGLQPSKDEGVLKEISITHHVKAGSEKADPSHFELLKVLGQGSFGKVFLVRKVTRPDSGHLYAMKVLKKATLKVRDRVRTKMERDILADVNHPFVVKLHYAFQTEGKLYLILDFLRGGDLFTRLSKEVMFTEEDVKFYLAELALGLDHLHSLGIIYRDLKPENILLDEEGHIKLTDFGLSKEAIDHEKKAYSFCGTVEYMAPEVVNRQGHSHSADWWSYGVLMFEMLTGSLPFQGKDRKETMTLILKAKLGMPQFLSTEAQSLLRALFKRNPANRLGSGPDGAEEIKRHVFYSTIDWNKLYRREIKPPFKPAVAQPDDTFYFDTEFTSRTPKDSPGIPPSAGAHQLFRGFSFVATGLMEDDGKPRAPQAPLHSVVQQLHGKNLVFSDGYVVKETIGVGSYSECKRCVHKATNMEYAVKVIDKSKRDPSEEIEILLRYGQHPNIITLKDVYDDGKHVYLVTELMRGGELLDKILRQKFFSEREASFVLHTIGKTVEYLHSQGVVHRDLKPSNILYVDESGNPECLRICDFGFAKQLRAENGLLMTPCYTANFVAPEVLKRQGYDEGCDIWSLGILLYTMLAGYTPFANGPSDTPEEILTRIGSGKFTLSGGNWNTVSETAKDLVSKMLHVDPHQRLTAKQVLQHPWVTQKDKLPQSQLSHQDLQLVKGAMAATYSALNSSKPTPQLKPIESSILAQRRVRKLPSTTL

[7] = biological target: T2, Serine/threonine-protein kinase LATS1 (Homo sapiens) (UniProt O95835); experiment: Selectivity interaction (KinomeScan (DiscoverX)) EUB0001619a LATS1; conditions: at 1 µM
T2 sequence (whole entry): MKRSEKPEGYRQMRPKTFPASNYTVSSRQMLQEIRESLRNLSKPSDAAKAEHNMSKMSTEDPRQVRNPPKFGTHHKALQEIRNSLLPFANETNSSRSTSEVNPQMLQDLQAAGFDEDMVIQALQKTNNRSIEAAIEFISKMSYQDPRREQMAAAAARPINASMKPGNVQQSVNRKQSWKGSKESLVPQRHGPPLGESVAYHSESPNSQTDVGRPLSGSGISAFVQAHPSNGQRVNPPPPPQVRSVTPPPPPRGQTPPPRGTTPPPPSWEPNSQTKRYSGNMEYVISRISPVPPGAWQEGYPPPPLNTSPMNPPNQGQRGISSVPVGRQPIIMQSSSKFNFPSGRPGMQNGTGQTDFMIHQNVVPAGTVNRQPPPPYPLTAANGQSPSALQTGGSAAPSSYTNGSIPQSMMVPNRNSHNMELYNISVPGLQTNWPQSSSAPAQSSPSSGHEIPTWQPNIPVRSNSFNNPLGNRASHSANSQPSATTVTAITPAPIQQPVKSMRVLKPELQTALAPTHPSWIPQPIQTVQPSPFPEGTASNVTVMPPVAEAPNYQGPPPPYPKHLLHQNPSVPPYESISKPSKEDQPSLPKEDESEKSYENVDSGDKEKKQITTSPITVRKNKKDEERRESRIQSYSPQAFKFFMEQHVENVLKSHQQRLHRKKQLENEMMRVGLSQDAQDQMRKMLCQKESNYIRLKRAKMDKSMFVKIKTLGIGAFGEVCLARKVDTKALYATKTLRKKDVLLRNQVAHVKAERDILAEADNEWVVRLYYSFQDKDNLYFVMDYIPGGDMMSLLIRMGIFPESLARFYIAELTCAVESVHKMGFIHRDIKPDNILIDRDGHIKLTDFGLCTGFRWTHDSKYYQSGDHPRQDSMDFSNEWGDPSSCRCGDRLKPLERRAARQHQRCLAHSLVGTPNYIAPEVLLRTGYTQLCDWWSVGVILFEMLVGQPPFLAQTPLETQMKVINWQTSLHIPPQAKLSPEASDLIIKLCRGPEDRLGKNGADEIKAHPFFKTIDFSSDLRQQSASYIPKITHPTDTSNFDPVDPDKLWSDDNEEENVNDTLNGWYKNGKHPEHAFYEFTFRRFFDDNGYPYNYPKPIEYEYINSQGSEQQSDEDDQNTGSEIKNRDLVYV

[8] = biological target: T3, Serine/threonine-protein kinase haspin (Homo sapiens) (UniProt Q8TF76); experiment: Selectivity interaction (KinomeScan (DiscoverX)) EUB0000695a GSG2; conditions: at 100 nM
T3 sequence (whole entry): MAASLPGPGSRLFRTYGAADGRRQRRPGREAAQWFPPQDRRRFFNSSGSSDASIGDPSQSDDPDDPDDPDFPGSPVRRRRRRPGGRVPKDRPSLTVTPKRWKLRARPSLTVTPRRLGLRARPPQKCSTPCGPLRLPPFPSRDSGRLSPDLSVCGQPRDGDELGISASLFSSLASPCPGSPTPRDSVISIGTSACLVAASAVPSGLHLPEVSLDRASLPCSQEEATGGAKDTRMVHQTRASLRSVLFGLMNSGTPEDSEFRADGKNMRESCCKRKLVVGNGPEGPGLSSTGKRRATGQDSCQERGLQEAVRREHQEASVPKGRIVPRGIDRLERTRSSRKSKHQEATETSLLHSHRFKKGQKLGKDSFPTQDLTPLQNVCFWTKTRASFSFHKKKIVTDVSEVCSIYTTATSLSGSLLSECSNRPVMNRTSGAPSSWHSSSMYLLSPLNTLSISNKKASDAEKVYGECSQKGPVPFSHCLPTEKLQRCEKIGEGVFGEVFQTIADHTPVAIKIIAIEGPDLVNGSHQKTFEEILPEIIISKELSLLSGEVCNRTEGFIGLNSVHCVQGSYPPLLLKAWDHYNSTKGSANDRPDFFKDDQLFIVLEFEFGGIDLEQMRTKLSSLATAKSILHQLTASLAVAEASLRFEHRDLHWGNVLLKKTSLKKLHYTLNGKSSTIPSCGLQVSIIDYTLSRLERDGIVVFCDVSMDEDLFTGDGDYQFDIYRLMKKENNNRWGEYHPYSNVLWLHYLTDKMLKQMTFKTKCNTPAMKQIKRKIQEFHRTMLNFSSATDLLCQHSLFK

[9] = biological target: Tyrosine-protein kinase HCK (Homo sapiens) (UniProt P08631); experiment: Selectivity interaction (Kinase panel (Z-LYTE Assay)) EUB0001632a HCK; conditions: at 10 µM
Chain of Tyrosine-protein kinase HCK (Homo sapiens) (P08631 2-526 limits assumed): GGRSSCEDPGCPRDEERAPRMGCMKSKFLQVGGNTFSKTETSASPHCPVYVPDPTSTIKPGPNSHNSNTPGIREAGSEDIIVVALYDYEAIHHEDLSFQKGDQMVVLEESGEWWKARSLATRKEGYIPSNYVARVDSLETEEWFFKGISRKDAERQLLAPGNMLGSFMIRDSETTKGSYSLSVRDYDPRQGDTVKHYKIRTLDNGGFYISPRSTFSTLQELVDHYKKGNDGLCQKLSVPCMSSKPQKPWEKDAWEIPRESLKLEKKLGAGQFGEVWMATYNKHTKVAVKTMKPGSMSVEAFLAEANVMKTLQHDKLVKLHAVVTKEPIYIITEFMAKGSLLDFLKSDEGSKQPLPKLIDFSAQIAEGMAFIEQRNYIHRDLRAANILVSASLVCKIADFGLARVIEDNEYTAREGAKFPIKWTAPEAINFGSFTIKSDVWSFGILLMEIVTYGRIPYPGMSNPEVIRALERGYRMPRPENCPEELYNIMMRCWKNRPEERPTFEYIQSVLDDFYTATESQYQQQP

Chain of MAP kinase-interacting serine/threonine-protein kinase 2 (Q9HBH9 whole entry, looked up): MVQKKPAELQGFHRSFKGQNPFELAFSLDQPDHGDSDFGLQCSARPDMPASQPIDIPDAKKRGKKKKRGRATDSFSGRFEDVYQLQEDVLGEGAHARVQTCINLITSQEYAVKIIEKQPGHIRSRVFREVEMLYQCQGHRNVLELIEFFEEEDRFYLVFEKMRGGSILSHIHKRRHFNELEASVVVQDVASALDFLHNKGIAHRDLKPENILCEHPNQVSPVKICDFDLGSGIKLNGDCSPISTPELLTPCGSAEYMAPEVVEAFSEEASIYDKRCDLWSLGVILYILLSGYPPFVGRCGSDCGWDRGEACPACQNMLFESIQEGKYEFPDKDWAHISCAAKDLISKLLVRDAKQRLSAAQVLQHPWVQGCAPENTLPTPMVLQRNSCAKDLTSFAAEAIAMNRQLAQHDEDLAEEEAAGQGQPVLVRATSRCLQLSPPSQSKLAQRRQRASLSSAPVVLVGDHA

For `COc1cc(Nc2nc(C)cc(-c3cnn4nc(OC)ccc34)n2)cc(C(F)(F)F)c1`, the % of control [1] was 78%.
For `CC(=O)Nc1cccc(-n2c(=O)n(C3CC3)c(=O)c3c(Nc4ccc(I)cc4F)n(C)c(=O)c(C)c32)c1`, the % of control [2] was 109%.
`CN1Cc2nccc(-c3cn(C)nc3-c3ccc(F)cc3)c2C1=O` showed a % of inhibition [3] of -8%.
In the case of `C=CC(=O)Nc1ccc(C(=O)Nc2[nH]nc3c2CN(C(=O)N[C@H](CN(C)C)c2ccccc2)C3(C)C)cc1`, the % of engagement ([4]; Selectivity number of off-targets 0.0, Selectivity number of targets 233.0, Source Knowledge https://www.sciencedirect.com/science/article/pii/S2451945619300674?via%3Dihub) is reported as -25.3% and the % of engagement [4] is reported as -16.4%.
`CC[C@@H]1[C@H](F)C(=O)N[C@@H]1COc1nccc2cc(C(N)=O)c(OC)cc12` [ZIMLOVISERTIB] showed a % of inhibition [5] of -1.08% and a % of inhibition [6] of 5.7%.
Work on `N#Cc1cccc(-c2c[nH]c3ncnc(N4CCOCC4)c23)c1` yielded a % of control [7] of 100%.
Work on `Cc1cc(F)c(C(=O)Nc2cccc(-c3nncn3C(C)C)n2)cc1-n1cnc(C2CC2)c1` yielded a % of control [8] of 100%.
`Cn1cc(-n2cnc3c(NCc4nc5cc(Cl)c(Cl)cc5[nH]4)nc(N4CCOCC4)nc32)cn1` gave a % of control [9] of 5.35%.
